We go through one sequence from US8420777B2, “Compounds that inhibit Hsp90 protein-protein interactions with IAP proteins” (University of Massachusetts, priority 2004, dated 2013).

One assay relates to HL-60 cells. The assay is described as follows: Cell killing by trypan blue exclusion. It counts as cell-based. The procedure: The expression and function of the survivin-Hsp90 pathway in acute myelogenous leukemia (AML) cell lines was analyzed. Survivin was abundantly expressed in four AML cell lines, U937, K-562, THP-1 and HL-60, by Western blotting (FIG. 29A).
Another assay deals with telomerase. The assay is described as follows: TRAP assay on Hsp90 immunoprecipitates. It is filed as cell-based. The settings on record: PC3 cells treated before immunoprecipitation. How it is done: Survivin peptide treated PC3 cells were also tested for telomerase activity, which requires Hsp90 (Holt et al., Genes Dev., 13:817-26 (1999)). Cells were treated as in above, immunoprecipitated with an antibody to Hsp90, and telomerase activity was determined by TRAP assay (Kim and Wu, Nucleic Acids Res., 25:2595-7 (1997)) of the immunoprecipitates. Telomerase activity is indicated by a ladder of telomere products.

Assay [1] deals with HL-60 and THP-1 AML cell lines. As to the kind of experiment: MTT cell viability, short versus full length peptide. It counts as cell-based. To be noted: 4×10^5 cells. How it is done: FIGS. 29B-29D are graphs depicting killing of AML cells by Survivin peptides. FIG. 29B depicts survivin peptide activity in HL-60 cells, measured by Trypan blue exclusion. FIGS. 29C and 29D depict killing, as measured using MTT, of HL-60 (FIG. 29C) or THP-1 (FIG. 29D) cells by full length Survivin peptide (SEQ ID NO:19), Survivin peptide K79-G83 (SEQ ID NO:20), or scrambled peptide (SEQ ID NO:25 and SEQ ID NO:28).
The activity of a shorter Survivin peptide was also tested in an AML cell line. A shorter cell permeable Survivin peptide was synthesized by fusing the third α-helix of the Antennapedia carrier sequence to the amino-terminus of the Survivin peptide sequence K79-G83 (SEQ ID NO:20). […] The scrambled control peptide ([…]; SEQ ID NO:28) was ineffective (FIGS. 29C, D). For these experiments a higher number of cells was used (4×10^5) to produce a 50% killing efficiency by full length survivin peptide.

The subject of another assay is HeLa cells. The assay is described as follows: Stability of Hsp90 client proteins and caspase-3 proform, Western blot. To be noted: increasing concentrations, 24 hours. It counts as cell-based, Human. The procedure: To determine whether intracellular loading of the Survivin cell permeable peptide reproduced the effect of mAb 8E2 that disrupts the Survivin-Hsp90 interaction in destabilizing Survivin levels in vivo (FIG. 8), HeLa cells were loaded with the indicated increasing concentrations of cell permeable control (SEQ ID NO:25) or Survivin (SEQ ID NO:19) cell permeable peptide, harvested after 24 hours, and analyzed for stability of Hsp90 client proteins, Survivin and Akt. Polyclonal antibody to Akt was obtained from Cell Signaling Technology (Cat. No. 9272).

The next assay deals with T1, N-terminus of Hsp90 (Homo sapiens, UniProt P07900, S63T).
T1 construct: GST (N); made in house; host or cells: E. coli
The assay is described as follows: ELISA of immobilized peptide with Hsp90 fragments. It counts as binding. To be noted: compared to P33 peptide. The procedure: ELISA experiments were performed by immobilizing recombinant Survivin (r-Survivin) ([…]) or recombinant Hsp90 (r-Hsp90) (10 μg/ml) on plastic microtiter wells (Immulon™-2, Dynatech Laboratories, Chantilly, Va.) using bicarbonate buffer, pH 9.5 (100 μl/well) for 18 hours at 4° C. Bound protein was blocked with 3% gelatin for 1 hour at 37° C., rinsed with washing buffer (TBS pH 7.4, 0.1% Tween™, 0.1% BSA) and incubated for 1 hour at 37° C. with different concentrations of a test protein to determine if the test protein bound the immobilized protein.
Nucleotide sequences encoding full length Hsp90α (SEQ ID NO:21; amino acids 1-732) or three fragments: N-Hsp90 (amino acids 1-272 of SEQ ID NO:21), M-Hsp90, (amino acids 273-617 of SEQ ID NO:21), and C-Hsp90 (amino acids 629-732 of SEQ ID NO:21) were cloned by PCR in pGex-4T3 (Pharmacia Biotech.) and pFLAG-CMV 6c (Sigma) using the BamHI cloning sites. GST fusions of full length Hsp90, or individual Hsp90 fragments were expressed in E. coli and bound to glutathione beads (Sigma). Purified recombinant Survivin devoid of the GST frame was obtained as described in Example 2.
FIGS. 24A and 24B identify the location of P31 peptide's binding site as the N-terminus domain of Hsp90. […] After washing, binding of the individual Hsp90 fragments to the immobilized peptides was detected with an antibody to Hsp90. […]

Assay [2] has as its system DU145, PC3, HeLa tumor cell lines. As to the kind of experiment: MTT colorimetric viability assay, tumor cell lines. To be noted: increasing concentrations, 24 hours. It is filed as cell-based. The procedure:
FIGS. 22A and 22B compares the effect of P31 (SEQ ID NO:19) or P33 (SEQ ID NO:25) on apoptosis of tumor cell lines (FIG. 22A) and normal cell lines (FIG. 22B). The following tumor cell lines DU145 (prostate cancer, circles), PC3 (prostate cancer, triangles), or HeLa (cervical carcinoma, squares) were treated with the indicated increasing concentrations of P31 peptide (solid symbols) or control P33 peptide (open symbols), harvested after 24 hours, and analyzed for cell viability using an MTT colorimetric assay. For normal cell types (right panel), HFF (human foreskin fibroblasts, squares), HGF (human fibroblasts, triangles) or WS-1 (human epithelial cells, circles) were treated with P31 (solid symbols) or control scrambled peptide P33, harvested after 24 hours and analyzed for overall cell viability by MTT colorimetric assay. All cell lines were from ATCC.

In assay [3] the test system is breast carcinoma MCF-7 cells. As to the kind of experiment: Soft agar colony formation (anchorage-independent growth). It is filed as cell-based. To be noted: 75 or 150 μm in growth media, relative to Control scrambled peptide. How it is done: For soft agar colony formation, 2×10^4 adapted breast carcinoma MCF-7 cells were suspended in 1.5 ml of DMEM supplemented with 10% FBS and 0.35% bactoagar (Becton Dickinson, Sparks, Md.) in 36 mm tissue culture plates containing 1.5 ml of 0.75% agarose in growth medium at the bottom layer. The plates were incubated at 37° C. in a 5% CO2 incubator for 2-5 weeks. The colonies were stained with 0.005% crystal violet (Sigma) and counted using a dissecting microscope under high power field.
The two upper plates shown in FIG. 19 had no visible cell colonies.

Take “RQIKIWFQNRRMKWKKKHSSGCAFL (Synthetically generated peptide) [P31]”: the “cell killing (trypan blue exclusion)” value in the assay on HL-60 cells is “dose-dependent and complete cell killing”. The telomerase activity result with telomerase was “abrogated telomerase activity”. This sequence showed a killing efficiency in assay [1] of 50%. Also, in the assay on HeLa cells, the “levels of Survivin and Akt” value is “low levels of Survivin and Akt”. Also, the “binding to the N-terminus of Hsp90 (OD405)” value in the assay with N-terminus of Hsp90 is reported as “bound specifically”. In addition, the “cell death in cancer cell lines (MTT)” value in assay [2] is recorded as “effectively induced cell death in all three cancer cell lines”. Moreover, the “anchorage-independent cell growth and survival” value in assay [3] is “completely inhibited”.
